Assay results: patent US20100251415A1, “Composition and Method for Modulating Plant Transformation” (priority 2009, published 2010)

How the values were obtained:
[1] = tested on: N. tabacum; assay: Calli regeneration under hygromycin selection after Agrobacterium-mediated transformation of leaves; format: in vivo, Nicotiana tabacum; settings: for Calli regenerated and transplanted: total: 20 leaves transformed
Experimental: Seeds of tobacco cultivar Big Havana were surface-sterilized with a solution containing 1% bleach and 0.05% Tween-80 for about 3 minutes and then rinsed twice with sterile distilled water for about 5 minutes. Surface-sterilized seeds were plated in 100 mm Petri dishes on sterile Whatman® filter paper submersed in 4 ml of liquid MS medium containing varying amounts of CeCl3, LaCl3 and a combination of CeCl3 and LaCl3 and the plants were transferred to a growth chamber for germination. Once germinated, the plants were removed from the growth chamber and grown for a period of one week under conditions of 16-hours light, 22° C. and 8-hours dark, 18° C. The three to five one week old plants were then removed from the 4-ml liquid medium and transferred to single sterile glass 250 ml flasks containing 15 ml of sterile liquid MS media supplemented with varying amounts of CeCl3, LaCl3 and a combination of CeCl3 and LaCl3. Flasks were then installed on shakers at 50-75 rpm. Plants were continuously grown under conditions of 16-hours light, 22° C. and 8-hours dark, 18° C. The growth medium in each flask was replaced weekly with 25 ml of fresh medium. Following a 3-week period, plants were removed from the flasks and 2 to 3 pairs of fully developed fresh leaves about 2-4 cm long were harvested (cut from the plant) for transformation with Agrobacteria.
Experimental groups of tobacco plants were germinated and grown in a liquid medium culture supplemented with varying amounts of CeCl3, LaCl3 and a combination of CeCl3 and LaCl3. Control plants for the transformation experiments were grown in a standard MS-medium that was not supplemented with CeCl3 or LaCl3.
Four weeks post-germination, the tobacco plants were removed from the liquid medium culture. The leaves from the plants were removed, and several parallel incisions were made along the leaves. The leaves were then vacuum infiltrated with an Agrobacterium suspension culture carrying the plasmid with LUC (gene coding for luciferase) and hygromycin (gene coding for the resistance to hygromycin) genes.
The leaves were vacuum-infiltrated twice for about 5 minutes with the Agrobacterium suspension culture using standard procedures known in the art. Following vacuum infiltration, the tobacco leaves were dried for about 5 to 10 minutes on sterile Whatman® filter paper to remove substantially all excess Agrobacterium cells. The leaves were then placed on plates containing MS medium, and each of the plates were placed for in a room for a period of 3 day at a temperature of 22° C. and exposed to a daily regime of 16-hours of light and 8-hours of dark.
Leaves from each of the experimental groups grown on the different media compositions having varying amounts of CeCl3, LaCl3 and a combination of CeCl3 and LaCl3 and the controls were washed with sterile water to remove the […]. To remove traces of growth medium, leaves were blotted on sterile filter paper and then submersed in a Petri dish laid out with Whatman® filter paper containing re-suspended Agrobacterium cells. Each submersed leaf surface was incised using a sharp surgical blade in parallel along the side veins. The distance between the two parallel incisions was about 5-7 mm. The primary leaf vein and leaf margins were left intact. Once cutting was complete, leaves remained submersed for a period of about 10 minutes. Leaves were then removed from the Petri dish and were blotted dry and placed upside-down on plates of MS medium, and were incubated in a dark room at 22° C. for a period of 3 days. Following incubation, leaves were removed from the plates and rinsed with sterile distilled water, blotted dry and transferred onto solid MS medium containing 0.8 mg/L of indole-3-acetic acid (IAA), and 2 mg/L kinetin for calli induction and regeneration, a combination of 100 mg/L ticarcillin and 3 mg/L potassium clavulanate to control Agrobacterium growth, and 25 mg/L hygromycin for selection for transformed cells. […]

[2] = tested on: N. tabacum; assay: Stable T-DNA integration: LUC expression test of regenerated plantlets; format: in vivo, Nicotiana tabacum; settings: for Calli regenerated and transplanted, LUC expression test: LUC negative / Calli regenerated and transplanted, LUC expression test: LUC positive: 20 leaves transformed
Experimental: The number of transgenic plants, having incorporated a marker gene, regenerated from tobacco calli in various transformation experiments were counted. All the regenerated plants were screened using a luciferase camera. Spraying the transgenic plants with luciferine, the substrate for luciferase enzyme, allowed the identification of transgenic plants expressing the luciferase.
After a period of about 3 to 4 weeks, the number of regenerated calli were determined. Shoots that developed were excised from calli and transferred to a root inducing solid MS medium containing 0.5 mg/L of naphtaleneacetic acid (NAA), 100 mg/L ticarcillin, 3 mg/L potassium clavulanate and 25 mg/L hygromycin. After a 1 to 2 week period of root induction, the plantlets were transplanted to soil.
The effects of CeCl3 on the occurrence of stable plant transformation events in N. tabacum plants were evaluated. These experiments identified transformed plants where the DNA of interest had stably integrated into the plant genome.
The newly appeared plantlets regenerated from the calli of Example 3, showing evidence of root formation, were excised from the calli and transferred to soil.
Plantlets were sprayed with luciferine, and the total number of luciferase-positive plantlets was scored. This allowed the calculation of the transformation frequency, as the number of plants expressing LUC gene to the number of transformed leaves, shown in FIG. 4.
The number of stable transformants re-generated from plants grown on CeCl3 supplemented media and control medium, as detailed in Example 3, were compared.

[3] = 0.1 μM CeCl3, liquid MS, Table 2 experiment
[4] = 0.1 μM CeCl3, liquid MS, second independent experiment (Table 3)
[5] = 0.5 μM CeCl3, liquid MS, Table 2 experiment
[6] = 1.0 μM CeCl3, liquid MS, second independent experiment (Table 3)

Q: Which “increase in the number of calli regenerated compared to the control medium” value (shortened to “increase in the number”) ([1]; 0.1 μM CeCl3, Table 2 experiment) does the source give for `[Ce+3].[Cl-].[Cl-].[Cl-]` [CeCl3, cerium (III) chloride] here?
A: 1.8 fold

Q: And the “Calli regenerated and transplanted: total” value [1, 3]?
A: 35

Q: And the “Calli regenerated and transplanted: total” value [1, 4]?
A: 48

Q: And the “increase in the number” value ([1]; 0.1 μM CeCl3, second independent experiment (Table 3, FIG. 4))?
A: 2.2 fold

Q: What about the “increase in the number” value ([1]; 0.5 μM CeCl3, Table 2 experiment) of the same compound?
A: 2.9 fold

Q: What about the “Calli regenerated and transplanted: total” value [1, 5] of the same compound?
A: 56

Q: What about the “Calli regenerated and transplanted: total” value [1, 6] of the same compound?
A: 73

Q: And the “increase in the number” value ([1]; 1.0 μM CeCl3, second independent experiment (Table 3, FIG. 4))?
A: 3.3 fold

Q: And the “difference in numbers of stable transformants versus control media” value ([2]; 0.1 μM CeCl3, FIG. 4)?
A: 2.0 fold

Q: And the “Calli regenerated and transplanted, LUC expression test: LUC negative” value [2, 3]?
A: 13

Q: What about the “Calli regenerated and transplanted, LUC expression test: LUC positive” value [2, 3] of the same compound?
A: 23

Q: And the “Calli regenerated and transplanted, LUC expression test: LUC negative” value [2, 4]?
A: 13

Q: What about the “Calli regenerated and transplanted, LUC expression test: LUC positive” value [2, 4] of the same compound?
A: 34

Q: And the Integration frequency [2, 3]?
A: 1.15 LUC positive plants/leaf trans

Q: What about the Integration frequency [2, 4] of the same compound?
A: 1.7 LUC positive plants/leaf trans

Q: What about the “Calli regenerated and transplanted, LUC expression test: LUC negative” value [2, 5] of the same compound?
A: 18

Q: And the “Calli regenerated and transplanted, LUC expression test: LUC positive” value [2, 5]?
A: 38

Q: And the Integration frequency [2, 5]?
A: 1.9 LUC positive plants/leaf trans

Q: And the “difference in numbers of stable transformants versus control media” value ([2]; 1.0 μM CeCl3, FIG. 4)?
A: 3.4 fold

Q: And the “Calli regenerated and transplanted, LUC expression test: LUC negative” value [2, 6]?
A: 18

Q: And the “Calli regenerated and transplanted, LUC expression test: LUC positive” value [2, 6]?
A: 57

Q: And the Integration frequency [2, 6]?
A: 2.85 LUC positive plants/leaf trans
